Assay: Hygroscopicity measurements (water content by Karl Fisher after humid storage)
Type: physicochemical
Details: for Hygroscopicity: water content (Karl Fisher) after 24 hours at 60° C./100% RH, then 24 hours at room temperature and about 30% RH
Procedure: vii. Hygroscopicity Measurements
One gram of the sample was accurately weighed in a weighing bottle (diameter 5 cm), covered with kimwipes and left to rest in 60° C./100% RH environment (water/dessicator). 24 hours later, the weighing bottle was removed, transferred to an environment of room temperature and about 30% RH (magnesium chloride hexahydrate saturated water solution/dessicator) and left to rest for 24 hours and the water content of the sample was measured by the Karl Fisher method.

SMILES	Hygroscopicity [%]	low hygroscopicity (moisture content) (after storing anhydrous aripiprazole Form J for 24 hours at 60° C. and a humidity level of 100%) [%]
O=C1CCc2ccc(OCCCCN3CCN(c4cccc(Cl)c4Cl)CC3)cc2N1 [Example 1, 7-{4-[4-(2,3-dichlorophenyl)-1-piperazinyl]-butoxy}-3,4-dihydrocarbostyril]	0.06	
O=C1CCc2ccc(OCCCCN3CCN(c4cccc(Cl)c4Cl)CC3)cc2N1 [aripiprazole Form J, 7-{4-[4-(2,3-dichlorophenyl)-1-piperazinyl]-butoxy}-3,4-dihydrocarbostyril]		≤ 0.5
O=C1CCc2ccc(OCCCCN3CCN(c4cccc(Cl)c4Cl)CC3)cc2N1 [Reference Example 2, 7-{4-[4-(2,3-dichlorophenyl)-1-piperazinyl]-butoxy}-3,4-dihydrocarbostyril, reference compound]	0.35	

From patent US20090247542A1, “SYNTHESES AND PREPARATIONS OF POLYMORPHS OF CRYSTALLINE ARIPIPRAZOLE” (MEDICHEM, S.A., priority 2005, published 2009)
